{"source": "paper PMC5218480", "about": "(PLoS ONE, 2017)", "test_system": "MV-4-11 cells", "test": "Gene expression microarray analysis (Affymetrix PrimeView) and GSEA", "type": "cell-based, human", "design": "RFU PODN (11730768_x_at) / Fold change /veh PODN (11730768_x_at) / RFU LINC00158 (11744669_a_at) / Fold change /veh LINC00158 (11744669_a_at) / RFU DUSP10 (11751237_a_at) / Fold change /veh DUSP10 (11751237_a_at) / RFU ID3 (11757404_x_at) / Fold change /veh ID3 (11757404_x_at) / RFU PLEKHG5 (11737974_s_at) / Fold change /veh PLEKHG5 (11737974_s_at) / RFU LRRC4B (11730491_at) / Fold change /veh LRRC4B (11730491_at) / RFU GIMAP4 (11747438_a_at) / Fold change /veh GIMAP4 (11747438_a_at) / RFU KRT8 (11758183_x_at) / Fold change /veh KRT8 (11758183_x_at) / RFU CNN1 (11734310_a_at) / Fold change /veh CNN1 (11734310_a_at) / RFU VPS37D (11726825_at) / Fold change /veh VPS37D (11726825_at) / RFU C10orf10 (11716522_x_at) / Fold change /veh C10orf10 (11716522_x_at) / RFU KIR2DL2 /// KIR2DL4 /// KIR2DL5A /// KIR2DL5B /// KIR2DS1 /// KIR2DS2 /// KIR2DS3 /// KIR2DS4 /// KIR3DL3 /// KIR3DL3 /// KIR3DS1 (11738374_at) / Fold change /veh KIR2DL2 /// KIR2DL4 /// KIR2DL5A /// KIR2DL5B /// KIR2DS1 /// KIR2DS2 /// KIR2DS3 /// KIR2DS4 /// KIR3DL3 /// KIR3DL3 /// KIR3DS1 (11738374_at) / RFU C1QL1 (11718748_at) / Fold change /veh C1QL1 (11718748_at) / RFU TMPRSS4 (11747572_a_at) / Fold change /veh TMPRSS4 (11747572_a_at) / RFU HAMP (11756126_x_at) / Fold change /veh HAMP (11756126_x_at) / RFU RNFT2 (11725882_a_at) / Fold change /veh RNFT2 (11725882_a_at) / RFU NR4A2 (11747474_a_at) / Fold change /veh NR4A2 (11747474_a_at) / RFU ABCC12 (11746883_a_at) / Fold change /veh ABCC12 (11746883_a_at) / RFU TMEM136 (11760407_x_at) / Fold change /veh TMEM136 (11760407_x_at) / RFU CLDN22 /// WWC2 (11732394_at) / Fold change /veh CLDN22 /// WWC2 (11732394_at) / RFU HLA-DPB1 (11760878_x_at) / Fold change /veh HLA-DPB1 (11760878_x_at) / RFU SPINT1 (11716480_a_at) / Fold change /veh SPINT1 (11716480_a_at) / RFU GAP43 (11754022_s_at) / Fold change /veh GAP43 (11754022_s_at) / RFU A4GNT (11735810_at) / Fold change /veh A4GNT (11735810_at) / RFU PRB3 (11715151_x_at) / Fold change /veh PRB3 (11715151_x_at) / RFU TUBB4B (11761932_at) / Fold change /veh TUBB4B (11761932_at) / RFU CAPN14 (11732068_a_at) / Fold change /veh CAPN14 (11732068_a_at) / RFU TMCC2 (11721928_a_at) / Fold change /veh TMCC2 (11721928_a_at) / RFU IRGQ (11745062_a_at) / Fold change /veh IRGQ (11745062_a_at) / RFU FAM174B (11720279_a_at) / Fold change /veh FAM174B (11720279_a_at) / RFU TMPRSS4 (11748680_a_at) / Fold change /veh TMPRSS4 (11748680_a_at) / RFU FAM212B (11763350_a_at) / Fold change /veh FAM212B (11763350_a_at) / RFU PLEKHG5 (11743358_a_at) / Fold change /veh PLEKHG5 (11743358_a_at) / RFU ZSCAN30 (11745921_a_at) / Fold change /veh ZSCAN30 (11745921_a_at) / RFU CMKLR1 (11741424_a_at) / Fold change /veh CMKLR1 (11741424_a_at) / RFU LOC101060620 /// MAPK8IP1 (11723275_at) / Fold change /veh LOC101060620 /// MAPK8IP1 (11723275_at) / RFU SPTSSB (11747773_x_at) / Fold change /veh SPTSSB (11747773_x_at) / RFU PRSS12 (11739890_at) / Fold change /veh PRSS12 (11739890_at) / RFU BIN1 (11741810_x_at) / Fold change /veh BIN1 (11741810_x_at) / RFU WNT11 (11732464_a_at) / Fold change /veh WNT11 (11732464_a_at) / RFU C10orf10 (11716521_a_at) / Fold change /veh C10orf10 (11716521_a_at) / RFU C5orf56 (11738089_at) / Fold change /veh C5orf56 (11738089_at) / RFU CYB561 (11721691_x_at) / Fold change /veh CYB561 (11721691_x_at) / RFU ANKRD19P (11752326_a_at) / Fold change /veh ANKRD19P (11752326_a_at) / RFU OR2T12 /// OR2T33 /// OR2T8 (11738714_s_at) / Fold change /veh OR2T12 /// OR2T33 /// OR2T8 (11738714_s_at) / RFU VCAN (11748164_a_at) / Fold change /veh VCAN (11748164_a_at) / RFU JSRP1 (11732532_at) / Fold change /veh JSRP1 (11732532_at) / RFU KRTAP10-11 (11738290_x_at) / Fold change /veh KRTAP10-11 (11738290_x_at) / RFU MYO3A (11730013_a_at) / Fold change /veh MYO3A (11730013_a_at) / RFU EBF3 (11725865_a_at) / Fold change /veh EBF3 (11725865_a_at) / RFU CAMK2N1 (11719241_x_at) / Fold change /veh CAMK2N1 (11719241_x_at) / RFU C5orf56 (11738088_a_at) / Fold change /veh C5orf56 (11738088_a_at) / RFU OLFML3 (11715873_a_at) / Fold change /veh OLFML3 (11715873_a_at) / RFU LOC100653217 /// NTM (11731650_a_at) / Fold change /veh LOC100653217 /// NTM (11731650_a_at) / RFU MAPK11 (11762145_a_at) / Fold change /veh MAPK11 (11762145_a_at) / RFU FIZ1 (11724087_x_at) / Fold change /veh FIZ1 (11724087_x_at) / RFU OASL (11726364_x_at) / Fold change /veh OASL (11726364_x_at) / RFU SOX15 (11748057_x_at) / Fold change /veh SOX15 (11748057_x_at) / RFU CD79A (11719716_a_at) / Fold change /veh CD79A (11719716_a_at) / RFU HIST1H1D (11736915_at) / Fold change /veh HIST1H1D (11736915_at) / RFU CASKIN2 (11723855_a_at) / Fold change /veh CASKIN2 (11723855_a_at) / RFU LOC730098 (11760151_x_at) / Fold change /veh LOC730098 (11760151_x_at) / RFU OR4N2 (11742367_at) / Fold change /veh OR4N2 (11742367_at) / RFU PRRT2 (11749266_a_at) / Fold change /veh PRRT2 (11749266_a_at) / RFU SNX32 (11753110_a_at) / Fold change /veh SNX32 (11753110_a_at) / RFU CDHR5 (11726645_a_at) / Fold change /veh CDHR5 (11726645_a_at) / RFU RCAN1 (11760418_a_at) / Fold change /veh RCAN1 (11760418_a_at) / RFU FAM167A (11723789_a_at) / Fold change /veh FAM167A (11723789_a_at) / RFU FAM26E (11764081_at) / Fold change /veh FAM26E (11764081_at) / RFU ISYNA1 (11749810_s_at) / Fold change /veh ISYNA1 (11749810_s_at) / RFU ACY1 (11761880_at) / Fold change /veh ACY1 (11761880_at) / RFU 11764098_at / Fold change /veh 11764098_at / RFU SAMD14 (11745864_x_at) / Fold change /veh SAMD14 (11745864_x_at) / RFU NPB (11741838_a_at) / Fold change /veh NPB (11741838_a_at) / RFU TMPRSS6 (11731388_a_at) / Fold change /veh TMPRSS6 (11731388_a_at) / RFU KRTAP10-2 (11738614_at) / Fold change /veh KRTAP10-2 (11738614_at) / RFU ARHGAP8 /// PRR5-ARHGAP8 (11727945_x_at) / Fold change /veh ARHGAP8 /// PRR5-ARHGAP8 (11727945_x_at) / RFU KRTAP5-7 /// NADSYN1 (11734609_at) / Fold change /veh KRTAP5-7 /// NADSYN1 (11734609_at) / RFU RASL12 (11751679_a_at) / Fold change /veh RASL12 (11751679_a_at) / RFU CDKN2B (11736163_a_at) / Fold change /veh CDKN2B (11736163_a_at) / RFU PRF1 (11729649_at) / Fold change /veh PRF1 (11729649_at) / RFU, ZNF638 /// ZNF638-IT1 / Fold change vs veh, ZNF638 /// ZNF638-IT1 / RFU, PANK3 / Fold change vs veh, PANK3 / RFU, SH3YL1 / Fold change vs veh, SH3YL1 / RFU, ZEB2 / Fold change vs veh, ZEB2 / RFU, NRIP1 / Fold change vs veh, NRIP1 / RFU, PTTG1IP / Fold change vs veh, PTTG1IP / RFU, CAPN2 / Fold change vs veh, CAPN2 / RFU, MED14 / Fold change vs veh, MED14 / RFU, SNORA58 / Fold change vs veh, SNORA58 / RFU, C1orf63 / Fold change vs veh, C1orf63 / RFU, LRRFIP1 / Fold change vs veh, LRRFIP1 / RFU, NDUFAF7 / Fold change vs veh, NDUFAF7 / RFU, SLC12A2 / Fold change vs veh, SLC12A2 / RFU, IBTK / Fold change vs veh, IBTK / RFU, ESF1 / Fold change vs veh, ESF1 / Fold change vs veh, TMEM50B / RFU, TAOK1 / Fold change vs veh, TAOK1 / RFU, ACBD3 / Fold change vs veh, ACBD3 / RFU, TMA16 / Fold change vs veh, TMA16 / RFU, RWDD3 / Fold change vs veh, RWDD3 / RFU, BCAT1 / Fold change vs veh, BCAT1 / RFU, EDEM3 / Fold change vs veh, EDEM3 / RFU, TMEM33 / Fold change vs veh, TMEM33 / RFU, WDR75 / Fold change vs veh, WDR75 / RFU, AHCTF1 / Fold change vs veh, AHCTF1 / RFU, TFRC / Fold change vs veh, TFRC / RFU, ZDHHC17 / Fold change vs veh, ZDHHC17 / RFU, NOM1 / Fold change vs veh, NOM1 / RFU, ARL8B / Fold change vs veh, ARL8B / RFU, ZBTB11 / Fold change vs veh, ZBTB11 / RFU, TAMM41 / Fold change vs veh, TAMM41 / RFU, KIAA1704 /// LOC100996395 / Fold change vs veh, KIAA1704 /// LOC100996395 / RFU, ING1 / Fold change vs veh, ING1 / RFU, TRMT61B / Fold change vs veh, TRMT61B / RFU, FUBP3 / Fold change vs veh, FUBP3 / RFU, TP53 / Fold change vs veh, TP53 / RFU, TNKS2 / Fold change vs veh, TNKS2 / RFU, ZFP14 / Fold change vs veh, ZFP14 / RFU, ACTR2 / Fold change vs veh, ACTR2 / RFU, PPP3R1 / Fold change vs veh, PPP3R1 / RFU, PIK3R1 / Fold change vs veh, PIK3R1 / RFU, HNRNPA1 / Fold change vs veh, HNRNPA1 / RFU, RNF170 / Fold change vs veh, RNF170 / RFU, ZNF28 / Fold change vs veh, ZNF28 / RFU, RNGTT / Fold change vs veh, RNGTT / RFU, OGT / Fold change vs veh, OGT / RFU, BRD1 / Fold change vs veh, BRD1 / RFU, MARS / Fold change vs veh, MARS / RFU, ZNF655 / Fold change vs veh, ZNF655 / RFU, FAHD1 / Fold change vs veh, FAHD1 / RFU, BDP1 / Fold change vs veh, BDP1 / RFU, LRRCC1 / Fold change vs veh, LRRCC1 / RFU, ARID1A / Fold change vs veh, ARID1A / RFU, ZNF146 / Fold change vs veh, ZNF146 / RFU, ZNF330 / Fold change vs veh, ZNF330 / RFU, GPN3 / Fold change vs veh, GPN3 / RFU, C9orf123 / Fold change vs veh, C9orf123 / RFU, N4BP2L2 / Fold change vs veh, N4BP2L2 / RFU, ARFIP1 / Fold change vs veh, ARFIP1 / RFU, FAM179B / Fold change vs veh, FAM179B / RFU, BCL10 / Fold change vs veh, BCL10 / RFU, UHRF1BP1L / Fold change vs veh, UHRF1BP1L / RFU, BET1 / Fold change vs veh, BET1 / RFU, CNOT2 / Fold change vs veh, CNOT2 / RFU, ZNF268 / Fold change vs veh, ZNF268 / Fold change vs veh, ZNF507 / RFU, DGCR2 / Fold change vs veh, DGCR2 / RFU, WDSUB1 / Fold change vs veh, WDSUB1 / Fold change vs veh, HSP90B1 /// MIR3652 / RFU, ADSS / Fold change vs veh, ADSS / RFU, GK / Fold change vs veh, GK / RFU, ZNF148 / Fold change vs veh, ZNF148 / RFU, TAF9 / Fold change vs veh, TAF9 / RFU, SLC1A5 / Fold change vs veh, SLC1A5 / RFU, SLMO2 / Fold change vs veh, SLMO2 / RFU, ABCC4 / Fold change vs veh, ABCC4 / RFU, LOC101060439 /// RAP1B / Fold change vs veh, LOC101060439 /// RAP1B / RFU, RFX7 / Fold change vs veh, RFX7 / RFU, GTPBP10 / Fold change vs veh, GTPBP10 / RFU, CNEP1R1 / Fold change vs veh, CNEP1R1 / RFU, BIVM-ERCC5 /// ERCC5 / Fold change vs veh, BIVM-ERCC5 /// ERCC5 / RFU, ILF3 / Fold change vs veh, ILF3 / RFU 11762660_at / Fold change /veh 11762660_at / RFU VCAN (11757783_s_at) / Fold change /veh VCAN (11757783_s_at) / RFU DDX43 (11728927_at) / Fold change /veh DDX43 (11728927_at) / RFU KRT8 (11758188_x_at) / Fold change /veh KRT8 (11758188_x_at) / RFU NKD1 (11759106_at) / Fold change /veh NKD1 (11759106_at) / RFU SRD5A1 (11742802_a_at) / Fold change /veh SRD5A1 (11742802_a_at) / RFU TPSAB1 /// TPSB2 (11721975_s_at) / Fold change /veh TPSAB1 /// TPSB2 (11721975_s_at) / RFU GSTM3 (11746129_a_at) / Fold change /veh GSTM3 (11746129_a_at) / RFU IL23R (11737362_x_at) / Fold change /veh IL23R (11737362_x_at) / RFU TMEM51 (11727254_a_at) / Fold change /veh TMEM51 (11727254_a_at) / RFU PIWIL2 (11732686_x_at) / Fold change /veh PIWIL2 (11732686_x_at) / RFU ORM1 (11744905_x_at) / Fold change /veh ORM1 (11744905_x_at) / RFU CCDC152 (11743942_at) / Fold change /veh CCDC152 (11743942_at) / RFU ECM1 (11717891_a_at) / Fold change /veh ECM1 (11717891_a_at) / RFU IL23R (11748794_a_at) / Fold change /veh IL23R (11748794_a_at) / RFU TNFAIP8L3 (11732012_x_at) / Fold change /veh TNFAIP8L3 (11732012_x_at) / RFU MBOAT4 (11741988_at) / Fold change /veh MBOAT4 (11741988_at) / RFU 11764193_at / Fold change /veh 11764193_at / RFU TMEM53 (11763286_at) / Fold change /veh TMEM53 (11763286_at) / RFU MAGEB2 (11727129_at) / Fold change /veh MAGEB2 (11727129_at) / RFU TMEM200A (11744735_a_at) / Fold change /veh TMEM200A (11744735_a_at) / RFU CCDC152 (11751479_a_at) / Fold change /veh CCDC152 (11751479_a_at) / RFU FAM211A (11726209_a_at) / Fold change /veh FAM211A (11726209_a_at) / RFU RGS16 (11746705_a_at) / Fold change /veh RGS16 (11746705_a_at) / RFU VCAN (11755009_s_at) / Fold change /veh VCAN (11755009_s_at) / RFU RHOB (11743442_s_at) / Fold change /veh RHOB (11743442_s_at) / RFU RGS16 (11720943_a_at) / Fold change /veh RGS16 (11720943_a_at) / RFU RGS16 (11720944_at) / Fold change /veh RGS16 (11720944_at) / RFU, VPS4B / Fold change vs veh, VPS4B / RFU, CREB1 / Fold change vs veh, CREB1 / RFU, DNAJC13 / Fold change vs veh, DNAJC13 / RFU, GNAQ / Fold change vs veh, GNAQ / RFU, CDK5R1 / Fold change vs veh, CDK5R1 / RFU, ZRANB3 / Fold change vs veh, ZRANB3 / RFU, CUL4A / Fold change vs veh, CUL4A / RFU, CCNY / Fold change vs veh, CCNY / RFU, UFL1 / Fold change vs veh, UFL1 / RFU, COG3 / Fold change vs veh, COG3 / RFU, DIAPH2 / Fold change vs veh, DIAPH2 / RFU, SKA2 / Fold change vs veh, SKA2 / RFU, AFF3 / Fold change vs veh, AFF3 / RFU, LMF1 / Fold change vs veh, LMF1 / RFU, IPO11 / Fold change vs veh, IPO11 / RFU, DFFB / Fold change vs veh, DFFB / RFU, FOXP1 / Fold change vs veh, FOXP1 / RFU, CARD8 / Fold change vs veh, CARD8 / RFU, STRN3 / Fold change vs veh, STRN3 / RFU, ADK / Fold change vs veh, ADK / RFU, RASSF2 / Fold change vs veh, RASSF2 / RFU, WIPF1 / Fold change vs veh, WIPF1 / RFU, LARP1B / Fold change vs veh, LARP1B / RFU, RASA1 / Fold change vs veh, RASA1 / RFU, RB1 / Fold change vs veh, RB1 / RFU, PPFIA1 / Fold change vs veh, PPFIA1 / RFU, MAT2A / Fold change vs veh, MAT2A / RFU, CCT5 / Fold change vs veh, CCT5 / RFU, WDR92 / Fold change vs veh, WDR92 / RFU, CUX1 / Fold change vs veh, CUX1 / RFU, TTC7A / Fold change vs veh, TTC7A / RFU, TMEM135 / Fold change vs veh, TMEM135 / RFU, DEPTOR / Fold change vs veh, DEPTOR / RFU, CPM / Fold change vs veh, CPM / RFU, DNAJB6 / Fold change vs veh, DNAJB6 / RFU, CACNA2D3 / Fold change vs veh, CACNA2D3 / RFU, DTX4 / Fold change vs veh, DTX4 / RFU, TFCP2 / Fold change vs veh, TFCP2 / RFU, GMCL1 /// GMCL1P1 / Fold change vs veh, GMCL1 /// GMCL1P1 / RFU, AEBP2 / Fold change vs veh, AEBP2 / RFU, SNHG1 /// SNORD22 /// SNORD25 /// SNORD26 /// SNORD27 /// SNORD28 /// SNORD29 /// SNORD31 / Fold change vs veh, SNHG1 /// SNORD22 /// SNORD25 /// SNORD26 /// SNORD27 /// SNORD28 /// SNORD29 /// SNORD31 / Fold change (Aza/veh), C12orf56 (ProbeSet 11735607_a_at) / Fold change (ACY-1035/veh), C12orf56 (ProbeSet 11735607_a_at) / Fold change (Aza/veh), FGFR1OP (ProbeSet 11751329_s_at) / Fold change (ACY-1035/veh), FGFR1OP (ProbeSet 11751329_s_at) / Fold change (Aza/veh), VPS36 (ProbeSet 11739960_a_at) / Fold change (ACY-1035/veh), VPS36 (ProbeSet 11739960_a_at) / RFU SYPL1 (11715823_x_at) / Fold change /veh SYPL1 (11715823_x_at) / RFU IGFBP7 (11715501_s_at) / Fold change /veh IGFBP7 (11715501_s_at) / RFU REEP3 (11722064_at) / Fold change /veh REEP3 (11722064_at) / RFU IGLL1 (11728026_x_at) / Fold change /veh IGLL1 (11728026_x_at): dose or concentration left out as unconfirmed", "details": "ProbeSet 11763166_a_at; LIST B", "data": [{"smiles": "Nc1ncn([C@@H]2O[C@H](CO)[C@@H](O)[C@H]2O)c(=O)n1", "note": "[azacitidine]", "values": [{"measurement": "Fold change vs veh, MARS", "result": 0.85}]}]}
